Experimental data from PubChem BioAssay (NCI).
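Method: 48-hour compound exposure of cells in 96-well plates, five concentrations, linear interpolation of endpoints. TGI: total growth inhibition.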

Experiments:
Assay in all cases: DTP human tumour cell line panel, 48 h
SK-MEL-2 melanoma = tested on: SK-MEL-2 melanoma
COLO 205 colon = tested on: COLO 205 colon
MALME-3M melanoma = tested on: MALME-3M melanoma
KM12 colon = tested on: KM12 colon
SNB-75 CNS = tested on: SNB-75 CNS
UO-31 renal = tested on: UO-31 renal
SNB-78 CNS = tested on: SNB-78 CNS
A498 renal = tested on: A498 renal
SK-OV-3 ovarian = tested on: SK-OV-3 ovarian
OVCAR-5 ovarian = tested on: OVCAR-5 ovarian
SR leukemia = tested on: SR leukemia
NCI-H226 lung = tested on: NCI-H226 lung
IGROV1 ovarian = tested on: IGROV1 ovarian
HL-60(TB) leukemia = tested on: HL-60(TB) leukemia
ACHN renal = tested on: ACHN renal
HCT-15 colon = tested on: HCT-15 colon
MOLT-4 leukemia = tested on: MOLT-4 leukemia
SF-539 CNS = tested on: SF-539 CNS
LXFL 529 NSCLC = tested on: LXFL 529 NSCLC
OVCAR-3 ovarian = tested on: OVCAR-3 ovarian
RPMI-8226 leukemia = tested on: RPMI-8226 leukemia
UACC-257 melanoma = tested on: UACC-257 melanoma
CCRF-CEM leukemia = tested on: CCRF-CEM leukemia
TK-10 renal = tested on: TK-10 renal
OVCAR-8 ovarian = tested on: OVCAR-8 ovarian
EKVX NSCLC = tested on: EKVX NSCLC
M14 melanoma = tested on: M14 melanoma
SF-268 CNS = tested on: SF-268 CNS
SK-MEL-28 melanoma = tested on: SK-MEL-28 melanoma
HOP-62 NSCLC = tested on: HOP-62 NSCLC
CAKI-1 renal = tested on: CAKI-1 renal
NCI-H23 lung = tested on: NCI-H23 lung
786-0 renal = tested on: 786-0 renal
M19-MEL melanoma = tested on: M19-MEL melanoma
HOP-92 NSCLC = tested on: HOP-92 NSCLC
LOX IMVI melanoma = tested on: LOX IMVI melanoma
DMS 114 small cell lung = tested on: DMS 114 small cell lung
SN12C renal = tested on: SN12C renal
KM20L2 colon = tested on: KM20L2 colon
SK-MEL-5 melanoma = tested on: SK-MEL-5 melanoma
U251 CNS = tested on: U251 CNS
NCI-H522 lung = tested on: NCI-H522 lung
HCT-116 colon = tested on: HCT-116 colon
SNB-19 CNS = tested on: SNB-19 CNS
HOP-18 NSCLC = tested on: HOP-18 NSCLC
A549 NSCLC = tested on: A549 NSCLC
OVCAR-4 ovarian = tested on: OVCAR-4 ovarian
SW-620 colon = tested on: SW-620 colon
DLD-1 colon = tested on: DLD-1 colon
RXF 393 renal = tested on: RXF 393 renal
SF-295 CNS = tested on: SF-295 CNS
DMS 273 small cell lung = tested on: DMS 273 small cell lung
HT29 colon = tested on: HT29 colon
K-562 leukemia = tested on: K-562 leukemia
UACC-62 melanoma = tested on: UACC-62 melanoma
NCI-H460 lung = tested on: NCI-H460 lung
HCC-2998 colon = tested on: HCC-2998 colon

CC(=O)NNc1nc(C)c(C(=O)NNC(=O)C(=O)Nc2ccc(C)c(C)c2)s1
TGI (SK-MEL-2 melanoma): > 100 µM
TGI (COLO 205 colon): > 100 µM
TGI (MALME-3M melanoma): > 100 µM
TGI (KM12 colon): > 100 µM
TGI (SNB-75 CNS): > 100 µM
TGI (UO-31 renal): > 100 µM
TGI (SNB-78 CNS): > 100 µM
TGI (A498 renal): > 100 µM
TGI (SK-OV-3 ovarian): > 100 µM
TGI (OVCAR-5 ovarian): > 100 µM
TGI (SR leukemia): > 100 µM
TGI (NCI-H226 lung): > 100 µM
TGI (IGROV1 ovarian): > 100 µM
TGI (HL-60(TB) leukemia): > 100 µM
TGI (ACHN renal): > 100 µM
TGI (HCT-15 colon): > 100 µM
TGI (MOLT-4 leukemia): > 100 µM
TGI (SF-539 CNS): > 100 µM
TGI (LXFL 529 NSCLC): > 100 µM
TGI (OVCAR-3 ovarian): 81.1 µM
TGI (RPMI-8226 leukemia): > 100 µM
TGI (UACC-257 melanoma): > 100 µM
TGI (CCRF-CEM leukemia): > 100 µM
TGI (TK-10 renal): > 100 µM
TGI (OVCAR-8 ovarian): > 100 µM
TGI (EKVX NSCLC): > 100 µM
TGI (M14 melanoma): > 100 µM
TGI (SF-268 CNS): > 100 µM
TGI (SK-MEL-28 melanoma): > 100 µM
TGI (HOP-62 NSCLC): > 100 µM
TGI (CAKI-1 renal): > 100 µM
TGI (NCI-H23 lung): > 100 µM
TGI (786-0 renal): > 100 µM
TGI (M19-MEL melanoma): > 100 µM
TGI (HOP-92 NSCLC): > 100 µM
TGI (LOX IMVI melanoma): > 100 µM
TGI (DMS 114 small cell lung): > 100 µM
TGI (SN12C renal): > 100 µM
TGI (KM20L2 colon): > 100 µM
TGI (SK-MEL-5 melanoma): > 100 µM
TGI (U251 CNS): > 100 µM
TGI (NCI-H522 lung): 46.3 µM
TGI (HCT-116 colon): > 100 µM
TGI (SNB-19 CNS): > 100 µM
TGI (HOP-18 NSCLC): > 100 µM
TGI (A549 NSCLC): > 100 µM
TGI (OVCAR-4 ovarian): > 100 µM
TGI (SW-620 colon): > 100 µM
TGI (DLD-1 colon): > 100 µM
TGI (RXF 393 renal): > 100 µM
TGI (SF-295 CNS): > 100 µM
TGI (DMS 273 small cell lung): > 100 µM
TGI (HT29 colon): > 100 µM
TGI (K-562 leukemia): > 100 µM
TGI (UACC-62 melanoma): > 100 µM
TGI (NCI-H460 lung): > 100 µM
TGI (HCC-2998 colon): > 100 µM

COc1cc2cc3c4c(cc(OC)c(OC)c4c2cc1OC)CCN3C(=O)CCCC(=O)O
TGI (SK-MEL-2 melanoma): > 100 µM
TGI (COLO 205 colon): > 100 µM
TGI (MALME-3M melanoma): > 100 µM
TGI (KM12 colon): > 100 µM
TGI (UO-31 renal): > 100 µM
TGI (SNB-78 CNS): > 100 µM
TGI (A498 renal): > 100 µM
TGI (SK-OV-3 ovarian): > 100 µM
TGI (OVCAR-5 ovarian): > 100 µM
TGI (SR leukemia): > 100 µM
TGI (NCI-H226 lung): > 100 µM
TGI (IGROV1 ovarian): > 100 µM
TGI (HL-60(TB) leukemia): > 100 µM
TGI (ACHN renal): > 100 µM
TGI (MOLT-4 leukemia): > 100 µM
TGI (SF-539 CNS): > 100 µM
TGI (LXFL 529 NSCLC): > 100 µM
TGI (OVCAR-3 ovarian): > 100 µM
TGI (RPMI-8226 leukemia): > 100 µM
TGI (UACC-257 melanoma): > 100 µM
TGI (CCRF-CEM leukemia): > 100 µM
TGI (TK-10 renal): > 100 µM
TGI (EKVX NSCLC): > 100 µM
TGI (M14 melanoma): > 100 µM
TGI (SF-268 CNS): > 100 µM
TGI (SK-MEL-28 melanoma): > 100 µM
TGI (HOP-62 NSCLC): > 100 µM
TGI (CAKI-1 renal): > 100 µM
TGI (NCI-H23 lung): > 100 µM
TGI (786-0 renal): > 100 µM
TGI (M19-MEL melanoma): > 100 µM
TGI (HOP-92 NSCLC): > 100 µM
TGI (LOX IMVI melanoma): > 100 µM
TGI (DMS 114 small cell lung): > 100 µM
TGI (SN12C renal): > 100 µM
TGI (KM20L2 colon): > 100 µM
TGI (SK-MEL-5 melanoma): > 100 µM
TGI (U251 CNS): > 100 µM
TGI (NCI-H522 lung): > 100 µM
TGI (HCT-116 colon): > 100 µM
TGI (SNB-19 CNS): > 100 µM
TGI (A549 NSCLC): > 100 µM
TGI (OVCAR-4 ovarian): > 100 µM
TGI (SW-620 colon): > 100 µM
TGI (DLD-1 colon): > 100 µM
TGI (RXF 393 renal): > 100 µM
TGI (SF-295 CNS): > 100 µM
TGI (DMS 273 small cell lung): > 100 µM
TGI (HT29 colon): > 100 µM
TGI (K-562 leukemia): > 100 µM
TGI (UACC-62 melanoma): > 100 µM
TGI (NCI-H460 lung): > 100 µM
TGI (HCC-2998 colon): > 100 µM

COc1ccc(/C=C/C(=O)c2sc(N)nc2C)cc1
TGI (SK-MEL-2 melanoma): > 100 µM
TGI (COLO 205 colon): > 100 µM
TGI (MALME-3M melanoma): > 100 µM
TGI (KM12 colon): > 100 µM
TGI (SNB-75 CNS): > 100 µM
TGI (UO-31 renal): > 100 µM
TGI (SNB-78 CNS): > 100 µM
TGI (A498 renal): > 100 µM
TGI (SK-OV-3 ovarian): > 100 µM
TGI (OVCAR-5 ovarian): > 100 µM
TGI (IGROV1 ovarian): > 100 µM
TGI (HL-60(TB) leukemia): > 100 µM
TGI (HCT-15 colon): > 100 µM
TGI (MOLT-4 leukemia): > 100 µM
TGI (SF-539 CNS): > 100 µM
TGI (OVCAR-3 ovarian): > 100 µM
TGI (RPMI-8226 leukemia): > 100 µM
TGI (UACC-257 melanoma): > 100 µM
TGI (CCRF-CEM leukemia): > 100 µM
TGI (TK-10 renal): > 100 µM
TGI (OVCAR-8 ovarian): > 100 µM
TGI (EKVX NSCLC): > 100 µM
TGI (SF-268 CNS): > 100 µM
TGI (SK-MEL-28 melanoma): > 100 µM
TGI (HOP-62 NSCLC): > 100 µM
TGI (CAKI-1 renal): > 100 µM
TGI (NCI-H23 lung): > 100 µM
TGI (786-0 renal): > 100 µM
TGI (M19-MEL melanoma): > 100 µM
TGI (HOP-92 NSCLC): > 100 µM
TGI (LOX IMVI melanoma): > 100 µM
TGI (DMS 114 small cell lung): > 100 µM
TGI (SN12C renal): > 100 µM
TGI (KM20L2 colon): > 100 µM
TGI (SK-MEL-5 melanoma): > 100 µM
TGI (U251 CNS): > 100 µM
TGI (NCI-H522 lung): > 100 µM
TGI (SNB-19 CNS): > 100 µM
TGI (HOP-18 NSCLC): > 100 µM
TGI (A549 NSCLC): > 100 µM
TGI (SW-620 colon): > 100 µM
TGI (DLD-1 colon): > 100 µM
TGI (RXF 393 renal): > 100 µM
TGI (SF-295 CNS): > 100 µM
TGI (DMS 273 small cell lung): > 100 µM
TGI (HT29 colon): > 100 µM
TGI (K-562 leukemia): > 100 µM
TGI (UACC-62 melanoma): > 100 µM
TGI (NCI-H460 lung): > 100 µM
TGI (HCC-2998 colon): > 100 µM

Cc1c2cc[n+](COC(=O)c3ccccc3)cc2c(C)c2c1[nH]c1ccccc12
TGI (UO-31 renal): 4.82 µM
TGI (A498 renal): 2.48 µM
TGI (OVCAR-5 ovarian): 2.39 µM
TGI (HL-60(TB) leukemia): 2.72 µM
TGI (MOLT-4 leukemia): 1.59 µM
TGI (SF-539 CNS): 1.48 µM
TGI (RPMI-8226 leukemia): 2.92 µM
TGI (CCRF-CEM leukemia): 2.91 µM
TGI (OVCAR-8 ovarian): 2.11 µM
TGI (SN12C renal): 1.79 µM
TGI (SNB-19 CNS): 52.6 µM
TGI (HOP-18 NSCLC): 1.93 µM
TGI (K-562 leukemia): 1.52 µM
